From patent US20160338351A1, “(S)-ABSCISIC ACID DERIVATIVES FOR ENHANCED GRAPE COLORATION” (Valent BioSciences Corporation, priority 2015, published 2016)
“Also recorded” adds a separate entry of the source. Structures can show the parent of a compound that is named as a salt.

What was measured:
Assay type in all cases: in vivo, Vitis vinifera
[1] = test system: Crimson Seedless grape clusters; experiment: Field study, Example 1: visual rating of red grape coloration, % of berries with marketable color
Experimental: (§1) A field study was conducted in California to compare the efficacy of S-ABA to 3′-methyl-(S)-ABA in promoting red grape coloration. S-ABA and 3′-methyl-(S)-ABA were formulated as aqueous solutions of the corresponding potassium salt to the desired concentrations with the final pHs being between 6.5 and 7.2. Individual Crimson Seedless grape clusters were selected and tagged, with 20 tagged clusters per treatment. The treatments were applied as cluster-directed sprays using a trigger sprayer at 15 to 20 mL per cluster to ensured good coverage of the grapes. Application of 15 to 20 milliliters per cluster simulates application of about 109 gallons per acre directed at the approximately 40 clusters per vine in a vineyard with 518 vines per acre. Based on these estimates, Applicant determined the approximate grams per acre. The equation is as follows: 20 ml/cluster×40 cluster/vine=800 ml/vine×518 vine/acre=(414,400 ml/acre)/(1000 ml/liter)=414 liters/acre. An estimation of grams per acre was made by multiplying the mg per cluster with 20,720 clusters/acre (40 clusters/vine×518 vines/acre=20,720 clusters/acre).
(§2) Periodically after the treatments, the grape clusters were evaluated for color development by visual ratings over a six-week period. The coloration was graded on a 1 to 8 grading scale, where a rating of 1 has very little or no red color and a rating of 8 has a deep or dark red color. The percentages of berries that reached marketable red coloration for each cluster were averaged and recorded for each treatment. Additionally, representative berries from each treatment group were harvested about four weeks after treatment and analyzed for anthocyanin content.

[2] = test system: Crimson Seedless grape clusters; experiment: Field study, Example 1: anthocyanin content of berries harvested about four weeks after treatment; settings: berries harvested about four weeks after treatment
Experimental: as §1, §2

Crimson Seedless grapes = experiment: Trial, Example 2: visual color rating of grape clusters on a 1 to 8 scale; design: key to Color Ratings: 1 = little/no red color, 8 = deep/dark red color; settings: for Color Ratings: applied day 0 and day 11, 1 to 8 grading scale; for red color development in comparison with the untreated control: six-week evaluation period
Experimental: Another trial was conducted in California on Crimson Seedless grapes to compare the efficacy of S-ABA, 3′-methyl-(S)-ABA and 3′-propargyl-(S)-ABA in promoting coloration. All three compounds were formulated as aqueous solutions of the corresponding potassium salt to the desired concentrations, with the final pHs being between 6.5 and 7.2. Individual Crimson Seedless grape clusters were selected and tagged, with 20 tagged clusters per treatment. The solutions were applied as cluster-directed sprays using a trigger sprayer at 15 to 20 milliliters per cluster which ensured good coverage of the grapes. The treatments were applied on day 0 and day 11 of the trial. Periodically during the trial, the grape clusters were evaluated for color development by visual ratings over a six-week period and the coloration was graded on a 1 to 8 grading scale, where a rating of 1 has very little or no red color and a rating of 8 has a deep or dark red color.

CC1=CC(=O)CC(C)(C)[C@@]1(O)/C=C/C(C)=C/C(=O)O [S-ABA, K^+ salt, (S)-abscisic acid]
Coloring Ratings, % of the berries with marketable color ([1]; 200 ppm, 3-4 mg/cluster, 60-80 grams/acre, 7 DAT): 41%
Coloring Ratings, % of the berries with marketable color ([1]; 200 ppm, 3-4 mg/cluster, 60-80 grams/acre, 14 DAT): 78%
Coloring Ratings, % of the berries with marketable color ([1]; 200 ppm, 3-4 mg/cluster, 60-80 grams/acre, 27 DAT): 84%
Coloring Ratings, % of the berries with marketable color ([1]; 200 ppm, 3-4 mg/cluster, 60-80 grams/acre, 33 DAT): 88%
Coloring Ratings, % of the berries with marketable color ([1]; 200 ppm, 3-4 mg/cluster, 60-80 grams/acre, 43 DAT): 89%
Coloring Ratings, % of the berries with marketable color ([1]; 400 ppm, 6-8 mg/cluster, 120-160 grams/acre, 7 DAT): 47%
Coloring Ratings, % of the berries with marketable color ([1]; 400 ppm, 6-8 mg/cluster, 120-160 grams/acre, 14 DAT): 80%
Coloring Ratings, % of the berries with marketable color ([1]; 400 ppm, 6-8 mg/cluster, 120-160 grams/acre, 27 DAT): 85%
Coloring Ratings, % of the berries with marketable color ([1]; 400 ppm, 6-8 mg/cluster, 120-160 grams/acre, 33 DAT): 88%
Coloring Ratings, % of the berries with marketable color ([1]; 400 ppm, 6-8 mg/cluster, 120-160 grams/acre, 43 DAT): 91%
time to reach ~90% marketable coloration ([1]; 400 ppm, 6 to 8 mg per cluster): five weeks; also recorded: five or six weeks
Total Anthocyanin Content ([2]; 3-4 mg/cluster (200 ppm, 15-20 mL)): 73 mg/L
Total Anthocyanin Content ([2]; 6-8 mg/cluster (400 ppm, 15-20 mL)): 83 mg/L
Color Ratings (Crimson Seedless grapes; 200 ppm, 3-4 mg/cluster, 60-80 g/acre, 3 DAT): 1
Color Ratings (Crimson Seedless grapes; 200 ppm, 3-4 mg/cluster, 60-80 g/acre, 10 DAT): 2.2
Color Ratings (Crimson Seedless grapes; 200 ppm, 3-4 mg/cluster, 60-80 g/acre, 14 DAT): 2.6
Color Ratings (Crimson Seedless grapes; 200 ppm, 3-4 mg/cluster, 60-80 g/acre, 21 DAT): 4.1
Color Ratings (Crimson Seedless grapes; 200 ppm, 3-4 mg/cluster, 60-80 g/acre, 31 DAT): 5.1
Color Ratings (Crimson Seedless grapes; 200 ppm, 3-4 mg/cluster, 60-80 g/acre, 41 DAT (end of six-week evaluation)): 5.4
Color Ratings (Crimson Seedless grapes; 400 ppm, 6-8 mg/cluster, 120-160 g/acre, 3 DAT): 1
Color Ratings (Crimson Seedless grapes; 400 ppm, 6-8 mg/cluster, 120-160 g/acre, 10 DAT): 2.9
Color Ratings (Crimson Seedless grapes; 400 ppm, 6-8 mg/cluster, 120-160 g/acre, 14 DAT): 3.5
Color Ratings (Crimson Seedless grapes; 400 ppm, 6-8 mg/cluster, 120-160 g/acre, 21 DAT): 4.5
Color Ratings (Crimson Seedless grapes; 400 ppm, 6-8 mg/cluster, 120-160 g/acre, 31 DAT): 5.9
Color Ratings (Crimson Seedless grapes; 400 ppm, 6-8 mg/cluster, 120-160 g/acre, 41 DAT (end of six-week evaluation)): 6.4
red color development in comparison with the untreated control (Crimson Seedless grapes): dose-dependent accelerated red color development

C#CCC1=C(C)[C@](O)(/C=C/C(C)=C\C(=O)O)C(C)(C)CC1=O [3′-propargyl-(S)-ABA, K^+ salt, (2Z,4E)-5-((S)-1-hydroxy-2,6,6-trimethyl-4-oxo-3-(prop-2-yn-1-yl)cyclohex-2-en-1-yl)-3-methylpenta-2,4-dienoic acid]
Color Ratings (Crimson Seedless grapes; 4 ppm, 0.06-0.08 mg/cluster, 1.2-1.6 g/acre, 3 DAT): 1.1
Color Ratings (Crimson Seedless grapes; 4 ppm, 0.06-0.08 mg/cluster, 1.2-1.6 g/acre, 10 DAT): 1.3
Color Ratings (Crimson Seedless grapes; 4 ppm, 0.06-0.08 mg/cluster, 1.2-1.6 g/acre, 14 DAT): 1.5
Color Ratings (Crimson Seedless grapes; 4 ppm, 0.06-0.08 mg/cluster, 1.2-1.6 g/acre, 21 DAT): 1.9
Color Ratings (Crimson Seedless grapes; 4 ppm, 0.06-0.08 mg/cluster, 1.2-1.6 g/acre, 31 DAT): 2.4
Color Ratings (Crimson Seedless grapes; 4 ppm, 0.06-0.08 mg/cluster, 1.2-1.6 g/acre, 41 DAT): 2.4
Color Ratings (Crimson Seedless grapes; 20 ppm, 6-8 g/acre, 3 DAT): 1.1
Color Ratings (Crimson Seedless grapes; 20 ppm, 6-8 g/acre, 10 DAT): 1.5
Color Ratings (Crimson Seedless grapes; 20 ppm, 6-8 g/acre, 14 DAT): 1.8
Color Ratings (Crimson Seedless grapes; 20 ppm, 6-8 g/acre, 21 DAT): 2.2
Color Ratings (Crimson Seedless grapes; 20 ppm, 6-8 g/acre, 31 DAT): 2.9
Color Ratings (Crimson Seedless grapes; 20 ppm, 6-8 g/acre, 41 DAT): 3.1
Color Ratings (Crimson Seedless grapes; 40 ppm, 0.6-0.8 mg/cluster, 12-16 g/acre, 3 DAT): 1.1
Color Ratings (Crimson Seedless grapes; 40 ppm, 0.6-0.8 mg/cluster, 12-16 g/acre, 10 DAT): 1.5
Color Ratings (Crimson Seedless grapes; 40 ppm, 0.6-0.8 mg/cluster, 12-16 g/acre, 14 DAT): 1.8
Color Ratings (Crimson Seedless grapes; 40 ppm, 0.6-0.8 mg/cluster, 12-16 g/acre, 21 DAT): 2.6
Color Ratings (Crimson Seedless grapes; 40 ppm, 0.6-0.8 mg/cluster, 12-16 g/acre, 31 DAT): 3.1
Color Ratings (Crimson Seedless grapes; 40 ppm, 0.6-0.8 mg/cluster, 12-16 g/acre, 41 DAT (end of six-week evaluation)): 3.3
potency in promoting red color development compared with another compound (Crimson Seedless grapes; Crimson Seedless grapes): less potent than 3′-methyl-(S)-ABA
red color development in comparison with the untreated control (Crimson Seedless grapes): accelerated coloration
